Data from US20170240592A1, “GADD45BETA/MKK7 INHIBITOR FOR THE TREATMENT OF A RESISTANT HAEMATOLOGICAL MALIGNANCY” (IMPERIAL INNOVATIONS LIMITED, priority 2014, published 2017).

Tests used:
FIG. 14 = assay: FIG. 14
Description: Table printed on a drawing sheet, FIG. 14
Values denote means±SD (n=3).
First reader's note: Each cell holds the value ± error and its unit together.

Gadd45β binding to MKK7 = target: T1, Gadd45β binding to MKK7 (Homo sapiens, UniProt O14733); assay: ELISA Gadd45β/MKK7 competition assay
T1 construct: Full-length human (h)MKK7 was expressed as a protein fused to an N-terminal GST tag (GST-MKK7); made in house
T1 sequence (O14733 1-419): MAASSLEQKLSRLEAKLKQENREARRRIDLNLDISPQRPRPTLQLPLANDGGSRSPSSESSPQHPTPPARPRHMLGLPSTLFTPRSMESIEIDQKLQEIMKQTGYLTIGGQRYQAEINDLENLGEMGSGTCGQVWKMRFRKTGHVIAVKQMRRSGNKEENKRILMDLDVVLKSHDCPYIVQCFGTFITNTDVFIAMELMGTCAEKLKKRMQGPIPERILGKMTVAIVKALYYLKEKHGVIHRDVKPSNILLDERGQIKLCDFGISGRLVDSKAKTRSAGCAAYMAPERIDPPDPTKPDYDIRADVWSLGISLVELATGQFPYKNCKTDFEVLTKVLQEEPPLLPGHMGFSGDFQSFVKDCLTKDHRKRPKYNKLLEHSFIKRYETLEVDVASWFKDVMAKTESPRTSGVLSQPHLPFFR
Protocol: Values express the percentage of live cells present in the treated cultures relative to the live cells present in the respective untreated cultures and denote means±SD ([WM]; n=3). UT, untreated. […] Values express the percentage of inhibition of Gadd45β binding to MKK7 relative to the binding measured in the absence of peptide. […] Co-immunoprecipitations (IP) were performed using an anti-FLAG antibody (a-FLAG); western blots (WB) were developed using an anti-HA or an anti-MKK7 antibody, as shown.
Proteins were purified as described in Tornatore et al., 2008. Individual peptides were synthesised as reported in Sandomenico et al., 2012. […] Peptide identity and purity were determined using liquid chromatography-mass spectrometry (LC-MS). […]
Recombinant proteins were purified as described previously (Tornatore et al., 2008). Briefly, full-length human (h)GADD45β was expressed as a protein fused to a poly-histidine (His6) tag and purified by affinity chromatography using His-Trap columns (GE Healthcare). […] Full-length human (h)MKK7 was expressed as a protein fused to an N-terminal GST tag (GST-MKK7), purified using GST-Trap as above, and then used for ELISA analyses. […] The kinase domain (KD) of hMKK7 (amino acids 101-405) was expressed as a protein fused to an N-terminal His6 tag in E. coli (BL21[DE3] strain) using the pETDuet-1 vector (Novagen). […]

Structure (SMILES): CC(=O)N[C@H](Cc1ccc(O)cc1)C(=O)N[C@H](CCCNC(=N)N)C(=O)N[C@H](Cc1ccccc1)C(N)=O [DTP3, Acetyl-Tyr-Arg-Phe-NH2]
- CL (FIG. 14): 1.628 ± 0.245 L/h/kg
- Vd (FIG. 14): 2.80 ± 1.26 L/kg
- Gadd45β/MKK7 inhibitor activity (Gadd45β binding to MKK7): sub-nM
- stability in vitro (Gadd45β binding to MKK7; before and after 48-hr pre-incubation with human serum at 37° C.): high stability in vitro
